Patent publication US9024041B2, “P38 MAP kinase inhibitors” (Respivert Ltd., priority 2010, dated 2015)
Marks after values point to notes of the source that are not given here.

Assays:
[1] = target: T1, p38 MAPKα isoform (MAPK14: Invitrogen) (Homo sapiens, UniProt Q16539); assay: p38 MAPKα enzyme inhibition assay (FRET, Z-LYTE, via MAPKAP-K2 activation); format: biochemical; details: 2 hr pre-incubation, ATP 10.0 μM; read-out: Enzyme Inhibition IC50 p38α
T1 construct: purchased Invitrogen

[2] = tested on: Poly I:C-induced ICAM-1 expression in BEAS2B cells; assay: Poly I:C-induced ICAM-1 induction in BEAS2B cells; format: cell-based; details: Homo sapiens, BEAS-2B, poly I:C 1 μg/mL, 18 hr, read-out: PolyI:C/ICAM1 IC50 BEAS2B
Method: Cellular Potency as Determined by Poly I:C-Induced ICAM-1 Induction in BEAS2B Cells
Poly I:C (1 μg/mL) (Invivogen Ltd., San Diego, Calif.) was transfected into BEAS2B cells (human bronchial epithelial cells, ATCC) with Oligofectamine (Invitrogen, Carlsbad, Calif.). Cells were pre-incubated with final concentrations of test compounds for 2 hr and the level of ICAM1 expression on the cell surface was determined by cell-based ELISA. At a time point 18 hr after poly I:C transfection, cells were fixed with 4% formaldehyde in PBS and then endogenous peroxidase was quenched by the addition of 0.1% sodium azide and 1% hydrogen peroxide. Cells were washed with wash-buffer (0.1% Tween in PBS: PBS-Tween). and after blocking the wells with 5% milk in PBS-Tween for 1 hr, the cells were incubated with anti-human ICAM-1 antibody (Cell Signaling Technology, Danvers, Mass.) in 1% BSA PBS overnight at 4° C. The cells were washed with PBS-Tween and incubated with the secondary antibody (HRP-conjugated anti-rabbit IgG, Dako Ltd., Glostrup, Denmark). The ICAM-1 signal was detected by adding substrate and reading the absorbance at 450 nm against a reference wavelength of 655 nm using a spectrophotometer. The cells were then washed with PBS-Tween and total cell numbers in each well were determined by reading absorbance at 595 nm after Crystal Violet staining and elution by 1% SDS solution. The measured OD 450-655 readings were corrected for cell number by dividing with the OD595 reading in each well. The inhibition of ICAM-1 expression was calculated at each concentration of test compound by comparison with vehicle control. The 50% inhibitory concentration (IC50) was determined from the resultant concentration-response curve.

[3] = target: T2, Recombinant, phosphorylated p38 MAPKγ (MAPK12:Invitrogen) (Homo sapiens, UniProt P53778); assay: p38 MAPKγ enzyme inhibition assay (FRET, Z-LYTE); format: biochemical; details: 2 hr pre-incubation, ATP 100 μM; read-out: Enzyme Inhibition IC50 p38γ
T2 construct: purchased Invitrogen
T2 sequence (P53778 1-367): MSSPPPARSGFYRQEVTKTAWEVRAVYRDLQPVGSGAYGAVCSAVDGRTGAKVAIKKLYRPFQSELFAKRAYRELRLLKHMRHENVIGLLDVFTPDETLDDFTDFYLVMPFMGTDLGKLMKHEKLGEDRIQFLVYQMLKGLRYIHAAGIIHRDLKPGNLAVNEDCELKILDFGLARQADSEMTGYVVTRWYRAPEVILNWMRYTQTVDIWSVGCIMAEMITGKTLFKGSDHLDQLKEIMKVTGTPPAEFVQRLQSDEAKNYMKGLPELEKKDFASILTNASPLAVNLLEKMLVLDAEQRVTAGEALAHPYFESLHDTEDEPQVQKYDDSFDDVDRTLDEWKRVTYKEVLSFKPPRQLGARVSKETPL
Method: The enzyme inhibitory activities of compounds disclosed herein were determined by fluorescence resonance energy transfer (FRET) using synthetic peptides labelled with both donor and acceptor fluorophores (Z-LYTE, Invitrogen Ltd., Paisley, UK). Recombinant, phosphorylated p38 MAPKγ (MAPK12:Invitrogen) was diluted in HEPES buffer, mixed with the test compound at the desired final concentrations and incubated for 2 hr at RT. The FRET peptide (2 μM) and ATP (100 μM) were added to the enzyme/compound mixture and incubated for 1 hr. Development reagent (protease) was added for 1 hr prior to detection in a fluorescence microplate reader (Varioskan® Flash, ThermoFisher Scientific). The site-specific protease cleaves non-phosphorylated peptide only and eliminates the FRET signal. Phosphorylation levels of each reaction were calculated using the ratio of coumarin emission (donor) over fluorescein emission (acceptor) for which high ratios indicate high phosphorylation and low ratios indicate low phosphorylation levels.

[4] = tested on: LPS-induced TNFα release in THP-1 cells; assay: LPS-induced TNFα release in THP-1 cells; format: cell-based; details: Homo sapiens, 3 μg/mL LPS, 4 hr
Method: Cellular Potency as Determined by LPS-Induced TNFα Release in THP-1 Cells
THP-1 cells, a human monocytic cell line, were stimulated with 3 μg/mL of LPS (from E. Coli; 0111:B4, Sigma) for 4 hr and the supernatant collected for determination of the TNFα concentration by sandwich ELISA (Duo-set, R&D systems). The inhibition of TNFα production was calculated at each concentration by comparison with vehicle control. The 50% inhibitory concentration (IC50) was determined from the resultant concentration-response curve.

[5] = tested on: LPS-induced IL-8 release in d-U937 cells; assay: LPS-induced IL-8 release in d-U937 cells; format: cell-based; details: Homo sapiens, dU937, 0.1 μg/mL LPS, 4 hr
Method: (§1) Cellular Potency as Determined by LPS-Induced TNFα/IL-8 Release in d-U937Cells
(§2) U937 cells, a human monocytic cell line, were differentiated to macrophage-type cells by incubation with phorbol myristate acetate (PMA; 100 ng/mL) for 48 to 72 hr. Cells were pre-incubated with final concentrations of test compound for 2 hr and were then stimulated with 0.1 μg/mL of LPS (from E. Coli: O111:B4, Sigma) for 4 hr. The supernatant was collected for determination of TNFα and IL-8 concentrations by sandwich ELISA (Duo-set, R&D systems). […] The relative 50% effective concentration (REC50) was determined from the resultant concentration-response curve. The inhibition of IL-8 production was calculated at each concentration of test compound by comparison with vehicle control. The 50% inhibitory concentration (IC50) was determined from the resultant concentration-response curve.

[6] = tested on: LPS-induced TNFα release in d-U937 cells; assay: LPS-induced TNFα release in d-U937 cells; format: cell-based; details: Homo sapiens, dU937, 4 h; read-out: LPS/TNFα REC50 d-U937
Method: as §1, §2

[7] = tested on: Differentiated U937 cells; assay: MTT assay: cell viability on exposure to test compounds; format: cell-based, human; details: percentage loss of cell viability vs vehicle; for MTT Assay (Viability) 4 h d-U937: 5% FCS; for MTT Assay (Viability) 24 h d-U937: 10% FCS
Method: MTT Assay: Determination of Cell Viability on Exposure to Test Compounds
Differentiated U937 cells were pre-incubated with each test compound under two protocols: the first for 4 hr in 5% FCS and the second in 10% FCS for 24 h. The supernatant was replaced with 200 μL of new media and 10 μL of MTT stock solution (5 mg/mL) was added to each well. After incubation for 1 hr the media were removed, 200 μL of DMSO was added to each well and the plates were shaken lightly for 1 hr prior to reading the absorbance at 550 nm. The percentage loss of cell viability was calculated for each well relative to vehicle (0.5% DMSO) treatment. Consequently an apparent increase in cell viability for drug treatment relative to vehicle is tabulated as a negative percentage.

T1 sequence (Q16539 whole entry, canonical isoform): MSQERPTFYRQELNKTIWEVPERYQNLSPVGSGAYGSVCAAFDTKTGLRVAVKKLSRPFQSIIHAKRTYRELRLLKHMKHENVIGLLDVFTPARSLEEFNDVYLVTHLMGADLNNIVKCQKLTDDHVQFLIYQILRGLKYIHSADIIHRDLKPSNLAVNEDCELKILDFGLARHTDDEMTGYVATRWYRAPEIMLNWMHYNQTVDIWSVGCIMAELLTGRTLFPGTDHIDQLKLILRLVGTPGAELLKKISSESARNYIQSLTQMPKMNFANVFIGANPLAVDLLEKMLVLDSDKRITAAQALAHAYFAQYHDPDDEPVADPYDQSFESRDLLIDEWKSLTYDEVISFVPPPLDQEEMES

| Compound | IC50 [1] | IC50 [2] | IC50 [3] | IC50 [4] | IC50 [5] | EC50 [6] | MTT Assay (Viability) 4 h d-U937 ([7]; 1 μg/mL) | MTT Assay (Viability) 24 h d-U937 ([7]; 1 μg/mL) | MTT Assay (Viability) 4 h d-U937 ([7]; 10 μg/mL) | MTT Assay (Viability) 24 h d-U937 ([7]; 10 μg/mL) |
| --- | --- | --- | --- | --- | --- | --- | --- | --- | --- | --- |
| CNS(=O)(=O)Cc1ccc(-n2nc(C(C)(C)C)cc2NC(=O)Nc2ccc(Oc3ccnc(NC(=O)COC)c3)c3ccccc23)cc1 [Example 31, N-(4-(4-(3-(3-tert-butyl-1-(4-((N-methylsulfamoyl)methyl)phenyl)-1H-pyrazol-5-yl)ureido)naphthalen-1-yloxy)pyridin-2-yl)-2-methoxyacetamide] | 17.1 nM | > 149 nM | 77.2 nM | 1 nM | 19.6 nM | 0.8 nM | 1.7% | 50.1% |  |  |
| CNC(=O)Nc1cc(Oc2ccc(NC(=O)Nc3cc(C(C)(C)C)nn3-c3ccc(OC)cc3)c3ccccc23)ccn1 [Example 38, 1-(4-(4-(3-(3-tert-butyl-1-(4-methoxyphenyl)-1H-pyrazol-5-yl)ureido)naphthalen-1-yloxy)pyridin-2-yl)-3-methylurea] | 15.7 nM | 9.8 nM | 122 nM | 1.7 nM | 21.8 nM | 18.4 nM | −1.7% | −38.2% |  |  |
| COCC(=O)Nc1cc(Oc2ccc(NC(=O)Nc3cc(-c4ccccc4)nn3-c3ccccc3)c3ccccc23)ccn1 [Example 19, N-(4-((4-(3-(1,3-Diphenyl-1H-pyrazol-5-yl)ureido)naphthalen-1-yl)oxy)pyridin-2-yl)-2-methoxyacetamide] | 0.4 nM | 369 nM | 261 nM | 1.8 nM | 24.5 nM | 8.1 nM | −1.7% | −11.7% |  |  |
| COCC(=O)Nc1cc(Oc2ccc(NC(=O)Nc3cc(C4(C)CCCCC4)nn3-c3ccc(C)cc3)c3ccccc23)ccn1 [Example 26, 2-methoxy-N-(4-(4-(3-(3-(1-methylcyclohexyl)-1-p-tolyl-1H-pyrazol-5-yl)ureido)naphthalen-1-yloxy)pyridin-2-yl)acetamide] | 48.2 nM | 4.4 nM | 779 nM | 3.5 nM | 1 nM | 0.4 nM | −27.9% | −33.2% |  |  |
| CNC(=O)Nc1cc(Oc2ccc(NC(=O)Nc3cc(C(C)(C)C)nn3-c3ccc(S(C)(=O)=O)cc3)c3ccccc23)ccn1 [Example 46, 1-(3-tert-butyl-1-(4-(methylsulfonyl)phenyl)-1H-pyrazol-5-yl)-3-(4-((2-(3-methylureido)pyridin-4-yl)oxy)naphthalen-1-yl)urea] | 36.2 nM | 41.2 nM | 104 nM | 2.3 nM | 2 nM | 0.4 nM | −12.6% | −47.9% |  |  |
| CNC(=O)Nc1cc(Oc2ccc(NC(=O)Nc3cc(C(C)(C)C)nn3-c3ccc(O)cc3)c3ccccc23)ccn1 [Example 33, 1-(3-tert-butyl-1-(4-hydroxyphenyl)-1H-pyrazol-5-yl)-3-(4-(2-(3-methylureido)pyridin-4-yloxy)naphthalen-1-yl)urea] | 5.3 nM | 4.4 nM | 180 nM | 1 nM | 7 nM | 0.7 nM | −1.3% | −24.1% |  |  |
| COCC(=O)Nc1cc(COc2ccc(NC(=O)Nc3cc(C(C)(C)C)nn3-c3ccc(OC)nc3)c(C)c2C)ccn1 [Example 61, N-(4-((4-(3-(3-tert-butyl-1-(6-methoxypyridin-3-yl)-1H-pyrazol-5-yl)ureido)-2,3-dimethylphenoxy)methyl)pyridin-2-yl)-2-methoxy acetamide] | 12.8 nM | > 1700 nM | 2810 nM | 1260 nM | 204 nM | 120 nM | 3.5% | −5.1% |  |  |
| COCC(=O)Nc1cc(Oc2ccc(NC(=O)Nc3cc(C(C)(C)C)nn3-c3ccc(OC(F)(F)F)cc3)c3ccccc23)ccn1 [Example 41, N-(4-(4-(3-(3-tert-butyl-1-(4-(trifluoromethoxy)phenyl)-1H-pyrazol-5-yl)ureido)naphthalen-1-yloxy)pyridin-2-yl)-2-methoxyacetamide] | 26.1 nM | 21.4 nM | 875 nM | 7.6 nM | 10.4 nM | 15.2 nM | −26.2% | 1.3% |  |  |
| COCC(=O)Nc1cc(Oc2ccc(NC(=O)Nc3cc(C(F)(F)C(F)(F)F)nn3-c3ccc(C)cc3)c3ccccc23)ccn1 [Example 30, 2-methoxy-N-(4-(4-(3-(3-(perfluoroethyl)-1-p-tolyl-1H-pyrazol-5-yl)ureido)naphthalen-1-yloxy)pyridin-2-yl)acetamide] | 10.1 nM | 1490 nM | > 15600 nM | 10.2 nM | 1910 nM | 108 nM | −6.3% | −46.1% |  |  |
| CCNC(=O)Nc1cc(Cc2ccc(NC(=O)Nc3cc(C(C)(C)C)nn3-c3ccc(C)cc3)c3ccccc23)ccn1 [Example 23, 1-(3-(tert-Butyl)-1-(p-tolyl)-1H-pyrazol-5-yl)-3-(4-((2-(3-ethylureido)pyridin-4-yl)methyl)naphthalen-1-yl)urea] | 20.3 nM | 20.3 nM | 3010 nM | 12.4 nM | 21.4 nM | 3.4 nM |  |  | 15.2^b % | −1.7^b % |
| COCC(=O)Nc1cc(C(=O)c2ccc(NC(=O)Nc3cc(C(C)(C)C)nn3-c3ccc(C)cc3)c3ccccc23)ccn1 [Example 66, N-(4-(4-(3-(3-tert-butyl-1-p-tolyl-1H-pyrazol-5-yl)ureido)-1-naphthoyl)pyridin-2-yl)-2-methoxyacetamide] | 7.3 nM | 48.4 nM | 7360 nM | 2.9 nM | 171 nM | 1 nM |  |  | 11.0^b % | 71.1^b % |
